From publication PMC11372076, “A dual inhibitor of PIP5K1C and PIKfyve prevents SARS-CoV-2 entry into cells” (Experimental & Molecular Medicine, 2024)

Experiments:
SARS-CoV-2 [1] = assay: microbe, parasite or virus in culture; assay type: cell-based, SARS-CoV-2 (hCoV-19/Korea/KCDC06/2020); conditions: for EC50: Severe acute respiratory syndrome coronavirus 2, Vero, 48 h, read-out: EC50 (reducing number of spike-positive cells by 50%); for selectivity index (SI), ratio of CC50 to EC50: Vero cells, Day 2
SARS-CoV-2 [2] = assay type: cell-based
Vero cells = assay: Endosomal pH change test with acridine orange; assay type: cell-based; conditions: 1 µM for 1 h
Protocol: This image-based experiment was performed according to our previous report with some modifications. Vero cells were cultured in a glass bottom 35 mm dish (6 × 10^4 cells per well) overnight. Each compound, including 1 µM UNC3230, apilimod or UNI418, was added to Vero cells for 1 h at 37 °C. The cells were stained with acridine orange (Sigma‒Aldrich, A9231) at a final concentration of 4 µg/mL for 30 min. After washing with PBS twice, images were acquired using a confocal microscope (Zeiss LSM 700, Baden-Württemberg, Germany) at two emission wavelengths, 493 to 560 nm and 590 to 720 nm, with excitation at 488 nm. The green-to-red ratio or vacuole size was measured using the built-in software ZEN 3.1.
Fig. 3 UNI418 negatively affects autophagosome-lysosome fusion and endosome acidification. a Live-cell imaging of HEK293T cells stably expressing mCherry-GFP-LC3 treated with 0.5 μM UNI418 at the indicated time points; the images within the white rectangular boxes are magnified on the right side. Scale bar, 30 µm. The number (b) and area (c) of GFP-positive dots per cell were quantified by ImageXpress. d Immunofluorescence images illustrating the inhibition of endolysosomal acidification by UNI418. Vero cells were treated with the mock control or 1 µM UNC3230, apilimod or UNI418 for 1 h at 37 °C. Acridine orange (4 µg/mL) was added to the compound-treated live cells, followed by additional incubation for 30 min. The cells were analyzed by confocal microscopy using two emission wavelengths at 493–560 (green) and 590–720 nm (red) after excitation at 488 nm. Merged images are presented, and images within the white rectangular boxes are magnified on the right side. Original magnification, 630×. The green-to-red fluorescence intensity ratio (e) and the area of fluorescent spots (f) were quantified. b, c, e, f The data are presented as the means ± SEMs, with a minimum of 200 spots. Statistical significance was determined by Student’s t test; *p < 0.05, **p < 0.01, ***p < 0.001 and ****p < 0.0001. n.s., not significant.

[3] = tested on: Wuhan-Hu-1 spike-pseudotyped virus; assay: microbe, parasite or virus in culture; assay type: cell-based, SARS-CoV-2
[4] = tested on: ACE2-mediated endocytosis in HEK293T cells; assay type: cell-based; conditions: 0.5 μM compound, 20 μg/mL spike-RBD, 2 h
RPE1 cells = assay: Western blot of autophagy-monitoring proteins SQSTM1/p62 and LC3-II; assay type: cell-based
Text: Fig. 2 UNI418 inhibits autophagy. a Western blot analysis of p62, LC3B-I, LC3B-II and GAPDH in the presence of UNC3230, apilimod and UNI418. b Immunofluorescence staining with LC3B (green) and p62 (red) antibodies upon treatment with UNC3230, apilimod and UNI418, and images within the white rectangular boxes are magnified on the right side. Scale bar, 20 µm. c The area of fluorescence intensity from immunofluorescence images (b) was quantified after UNC3230, apilimod and UNI418 treatments. d, e Quantification of autophagic flux under normal conditions and under HBSS-induced starvation conditions with or without UNI418 treatment. RPE1 cells were treated with UNI418 (0.5 µM or 1 µM) for 2 h in the presence or absence of a lysosomal inhibitor (bafilomycin A1, BFA). Representative Western blot images (d) and the graph showing the average of 4 independent experiments (e). The error bars indicate the S.D. Statistical analysis was performed using two-way ANOVA; *p < 0.05, ***p < 0.001.
Supplementary Materials and Methods
The whole cell extracts were prepared by lysis of harvested cells with M -PER Mammalian protein extraction reagent (Thermo Fisher Scientific). The protein concentrations were determined by Bradford protein assay (Bio- Rad). The 10 to 20 μ g of prepared proteins were separated by the SDS-PAGE and transferred to PVDF membrane, which were then blocked in 5% skim milk for 30 minutes at room temperature. […] The images were obtained and quantified by Fusion solo ChemiDoc system (Vilber).
Autophagic flux assay was analyzed essentially as previously described1,2.
Briefly, RPE1 cells were treated with UNI418 (0, 0.5, or 1 µM) for 2 h with/without bafilomycin A1 to inhibit lysosomal degradation under normal growth media or HBSS. […] The LC3- II bands were quantified using Fusion Solo ChemiDoc system (Vilber) and normalized to GAPDH bands.
Autophagy flux was calculated by subsidizing the lysosomal inhibitor-treated cells to non- treatment cells in both normal growth media and HBSS-induced starvation with 0, 0.5, or 1 µM UNI418. […]

cathepsin D = assay: Cathepsin D maturation by Western blot; assay type: cell-based
in vitro = conditions: African green monkey

| SMILES | EC50 (SARS-CoV-2 [1]) | selectivity index (SI), ratio of CC50 to EC50 (SARS-CoV-2 [1]) | reduction in the levels of the viral NP gene (viral genome copies) (SARS-CoV-2 [2]) | green-to-red ratio of fluorescent spots relative to mock-treated sample (Vero cells) | pseudotyped virus entry [3] | ACE2-mediated endocytosis triggered by spike-RBD [4] | accumulation of SQSTM1/p62 and LC3-II (RPE1 cells) | proteolytic cleavage (maturation) of cathepsin D (cathepsin D) | CC50 (in vitro) | IC50 ([3]; Severe acute respiratory syndrome coronavirus 2, 293T/ACE2, read-out: concentration that inhibited spike-mediated viral entry by 50% compared to maximal inhibition) |
| --- | --- | --- | --- | --- | --- | --- | --- | --- | --- | --- |
| c1ccc(-c2cc(Nc3nc(-c4ccncc4)nc4ccccc34)n[nH]2)cc1 [UNI418, N -(5-phenyl-1 H -pyrazol-3-yl)-2-(4-pyridinyl)-4-quinazolinamine] | 1400 nM | 45.6 | approximately 2 log | 6.3 fold | markedly inhibited | successfully inhibited | strongly induced | considerably inhibited | 62300 nM | – |
| Cc1cccc(/C=N/Nc2cc(N3CCOCC3)nc(OCCc3ccccn3)n2)c1 [apilimod] | 300 nM | 272.6 | approximately 2 log | 2.2 fold | – | did not obviously inhibit | strongly induced | largely inhibited | 73600 nM | 5 nM |
